Results reported in US20040086901A1, “Database for analyzing gene function and method of analyzing gene function by dspa” (priority 2000, published 2004).

How the values were obtained:
Type in all cases: cell-based, mouse
[1] = system: NIH3T3 cells overexpressing Ha-ras; experiment: MTT cell viability, drug sensitivity of Ha-ras overexpressing cells vs parental line; conditions: Ha-ras high-expressing cells / parental cell line, 3 to 4 days
Outline: (§1)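 Drugs were serially diluted twofold across nine wells. Cells were then added from a suspension of 1×10^5 cells/ml and cultured for 3 to 4 days. After a 4 h MTT incubation at 37 °C and acid-isopropanol solubilisation, formazan was measured at 574 nm and IC40 ratios were derived.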

[2] = system: NIH3T3 cells overexpressing erbB2; experiment: MTT cell viability, erbB2 overexpressing cells vs parental line; conditions: erbB2 high-expressing cells / parental cell line, 3 to 4 days
Outline: (§2)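 Stable NIH3T3 transfectants (cDNA in pRc-CMV-type vector, G-418-selected, high expressers picked by Western blot) and parental cells were seeded at 1×10^5 cells/ml into twofold serial drug dilutions and grown 3–4 days. MTT formazan was read at 574/655 nm, and log ratios of IC40 values were derived.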

[3] = system: NIH3T3 cells overexpressing Cip-1; experiment: MTT cell viability, Cip-1 overexpressing cells vs parental line; conditions: Cip-1 high-expressing cells / parental cell line, 3 to 4 days
Description: With regard to the function-known genes, the genes shown in the left column of Table 2 were used. With regard to the drugs, those shown in Table 1 were dissolved in DMSO to an extent of 100-fold of the maximum concentration for the search of the drugs and used. With regard to the cells, incubated NIH3T3 or ras-NIH3T3 cells were used.
Full-length cDNA of each function-known genes was incorporated into an expression vector (pRc-CMV, etc.) and transfected into NIH3T3 cells by a common method. Transformed cells were isolated using the resistance to G-418 as an index and the expression of the transfected gene in each cell was investigated by Western blotting method to select a highly expressing line.
Cell viabilities were measured according to the following procedures.
1) From the 2nd to the 11th rows of a 96-well plate were filled with DMEM (50 μl). The 12th row was filled with 100 μl of DMEM.
2) The 1st row was filled with 98 μl of DMEM.
3) Drugs (2 μl each) were added into the 1st row.
4) Continuous double-dilution was conducted from the 1st to the 9th rows. Fifty μl were taken out from the 9th row and discarded. The plate was preserved in a CO2 incubator.
5) Cells (each high-expressing cells and the parental cell line) were detached from the medium using a trypsin solution, suspended in 10% CS-DMEM and transferred to a test tube and cell numbers (cell/ml) were counted.
6) The cells were diluted to a concentration of 1×10^5 cells/ml, and 50 μl of the cell suspension were added to the 1st to the 11th rows of the plate followed by gently stirring.
7) The plate was transferred to the CO2 incubator and incubated for 3 to 4 days.
8) MTT (5 mg/ml in PBS) (10 μl) was added to the 1st to the 12th rows of the plate and incubated in the CO2 incubator at 37° C. for 4 hours.
9) A reaction stop solution (0.04N HCl in isopropanol) (150 μl) was added followed by mixing well and being allowed to stand at room temperature for about 2 hours.
10) Coloration of formazan which was a metabolite of the MTT dye was measured using a microplate reader. The measurement wavelength was 574 nm and the reference wavelength was 655 nm. The 10th and the 11th rows of the plate were 100% controls and the 12th row was a 0% control.
As an index for the sensitivity of highly gene-expressing cells and the parental cell line to various drugs, each of the IC40 values thereof was specified and ratios of the IC40 values were calculated. […] After that, logarithmic values of ratios of IC40 values were calculated from each gene.

[4] = system: NIH3T3 cells overexpressing p16/INK4A; experiment: MTT cell viability, p16/INK4A overexpressing cells vs parental line; conditions: p16/INK4A high-expressing cells / parental cell line, 3 to 4 days
Outline: as §2

[5] = system: NIH3T3 cells overexpressing Bax; experiment: MTT cell viability, Bax overexpressing cells vs parental line; conditions: 3 to 4 days
Outline: as §1

[6] = system: NIH3T3 cells overexpressing CP-antisense; experiment: MTT cell viability, CP-antisense cells vs parental line; conditions: 3 to 4 days
Outline: as §2

[7] = system: NIH3T3 cells overexpressing DAN; experiment: MTT cell viability, DAN overexpressing cells vs parental line; conditions: DAN high-expressing cells / parental cell line, 3 to 4 days
Outline: as §2

[8] = system: NIH3T3 cells overexpressing caspase-3; experiment: MTT cell viability, caspase-3 overexpressing cells vs parental line; conditions: caspase-3 high-expressing cells / parental cell line, 3 to 4 days
Outline: as §1

[9] = system: NIH3T3 cells overexpressing PDGF-R-Del; experiment: MTT cell viability, PDGF-R-Del overexpressing cells vs parental line; conditions: PDGF-R-Del high-expressing cells / parental cell line, 3 to 4 days
Outline: as §2

[10] = system: NIH3T3 cells overexpressing Gluco-corticoid-R; experiment: MTT cell viability, Gluco-corticoid-R overexpressing cells vs parental line; conditions: Gluco-corticoid-R high-expressing cells / parental cell line, 3 to 4 days
Outline: as §1

[11] = system: NIH3T3 cells overexpressing PKCepsilon-KN; experiment: MTT cell viability, PKCepsilon-KN overexpressing cells vs parental line; conditions: 3 to 4 days
Outline: as §1

[12] = system: NIH3T3 cells, TPA (PKC downreg); experiment: MTT cell viability, TPA (PKC downreg) cells vs parental line; conditions: 3 to 4 days
[13] = system: NIH3T3 cells overexpressing p38-DN; experiment: MTT cell viability, p38-DN overexpressing cells vs parental line; conditions: p38-DN high-expressing cells / parental cell line, 3 to 4 days
Outline: as §1

[14] = system: NIH3T3 cells overexpressing HSP4O; experiment: MTT cell viability, HSP4O overexpressing cells vs parental line; conditions: HSP4O high-expressing cells / parental cell line, 3 to 4 days
Outline: as §2

[15] = system: NIH3T3 cells overexpressing HSP9O; experiment: MTT cell viability, HSP9O overexpressing cells vs parental line; conditions: HSP9O high-expressing cells / parental cell line, 3 to 4 days
Outline: as §2

[16] = system: NIH3T3 cells overexpressing HNF3b; experiment: MTT cell viability, HNF3b overexpressing cells vs parental line; conditions: HNF3b high-expressing cells / parental cell line, 3 to 4 days
Outline: as §1

[17] = system: NIH3T3 cells overexpressing HNF4; experiment: MTT cell viability, HNF4 overexpressing cells vs parental line; conditions: HNF4 high-expressing cells / parental cell line, 3 to 4 days
Outline: as §1

[18] = system: NIH3T3 cells overexpressing coup; experiment: MTT cell viability, coup overexpressing cells vs parental line; conditions: coup high-expressing cells / parental cell line, 3 to 4 days
Outline: as §2

[19] = system: NIH3T3 cells overexpressing p33/ING1; experiment: MTT cell viability, p33/ING1 overexpressing cells vs parental line; conditions: p33/ING1 high-expressing cells / parental cell line, 3 to 4 days
Outline: as §2

[20] = Bax (first of two Bax lines) high-expressing cells / parental cell line
[21] = Bax (second of two Bax lines) high-expressing cells / parental cell line
[22] = PKCepsilon-KN (first of two lines) high-expressing cells / parental cell line
[23] = PKCepsilon-KN (second of two lines) high-expressing cells / parental cell line

Structure (SMILES)	logarithmic value of ratio of IC40 values [1]	logarithmic value of ratio of IC40 values [2]	logarithmic value of ratio of IC40 values [3]	logarithmic value of ratio of IC40 values [4]	logarithmic value of ratio of IC40 values [5, 20]	logarithmic value of ratio of IC40 values [5, 21]	logarithmic value of ratio of IC40 values [6]	logarithmic value of ratio of IC40 values [7]	logarithmic value of ratio of IC40 values [8]	logarithmic value of ratio of IC40 values [9]	logarithmic value of ratio of IC40 values [10]	logarithmic value of ratio of IC40 values [11, 22]	logarithmic value of ratio of IC40 values [11, 23]	logarithmic value of ratio of IC40 values [12]	logarithmic value of ratio of IC40 values [13]	logarithmic value of ratio of IC40 values [14]	logarithmic value of ratio of IC40 values [15]	logarithmic value of ratio of IC40 values [16]	logarithmic value of ratio of IC40 values [17]	logarithmic value of ratio of IC40 values [18]	also measured
C/C=C(/C)C(=O)O[C@H]1C(C)=C2[C@H]([C@@H]1OC(=O)CCCCCCC)[C@@](C)(OC(C)=O)C[C@H](OC(=O)CCC)[C@@]1(O)[C@H]2OC(=O)[C@@]1(C)O [Thapsigargin, thapsigargin]	0.00	0.11	0.04	−0.64	−0.21	0.20	−0.30	0.18	−0.17	0.24	0.20	0.09	0.20	−0.23	0.02	0.18	0.09	0.24	0.00	−0.30	logarithmic value of ratio of IC40 values [19]: 0.49
COc1ccc2c(c1)CC[C@@H]1[C@@H]2CC[C@]2(C)[C@@H](NCCCCCCN3C(=O)C=CC3=O)CC[C@@H]12 [U73122]	−0.19	−0.96	0.08	0.28	0.00	0.00	−0.10	0.36	0.53	0.00	0.05	−0.21	−0.38	−0.12	0.00	−0.20	0.18	−0.31	0.00	0.00	logarithmic value of ratio of IC40 values [19]: 0.28
C=C[C@]1(C)CC[C@@H](C(=C)C)C[C@H]1C(=C)C [b-elemene, β-elemene]	−0.26	−0.46	0.00	0.12	0.14	0.00	0.00	0.04	0.28	0.16	0.00	0.00	−0.23	0.00	0.05	0.02	0.05	−0.07	0.33	0.52	logarithmic value of ratio of IC40 values [19]: −0.14
